Values quoted from earlier work in US9149457B2, “Nutraceutical composition for PDE4 inhibition, enhanced dopamine metabolism and long term potentiation” (priority 2013, dated 2015).
One block for each molecule: values may come before it.

Key:
[1] = tested on: phosphodiesterase enzymes (PDE 1 through 5); conditions: references 24-27
[2] = references 46-47
acetylcholine = conditions: references 33-35
[3] = references 7-13

inhibition of phosphodiesterase enzymes that degrade 3',5'-cyclic nucleotides [1]: can inhibit
SMILES: O=c1cc(-c2ccc(O)c(O)c2)oc2cc(O)cc(O)c12 [Luteolin, luteolin]

SMILES: O=C(/C=C/C=C/c1ccc2c(c1)OCO2)N1CCCCC1 [Piperine, piperine]
bioavailability of resveratrol [2]: enhance the bioavailability of resveratrol

SMILES: CC(=O)O[C@H](CC(=O)[O-])C[N+](C)(C)C [Acetyl-L-carnitine, acetyl-L-carnitine]
levels of acetylcholine in the brain (acetylcholine): increase the levels

SMILES: COc1ccc(C2CNC(=O)C2)cc1OC1CCCC1 (stereo not shown) [rolipram]
side effect [3]: emesis (vomiting) at low doses
